Source: the supplement of paper PMC10307832

Key:
Assay in all cases: relative viability (nuclei count vs DMSO), 5 days (fraction); higher = more cells survive
Wnt-C59 + Lapatinib = compound: CC1=NC=CC(=C1)C2=CC=C(C=C2)CC(=O)NC3=CC=C(C=C3)C4=CN=CC=C4 [Wnt-C59] + CS(=O)(=O)CCNCc1ccc(-c2ccc3ncnc(Nc4ccc(OCc5cccc(F)c5)c(Cl)c4)c3c2)o1 [Lapatinib] (partner 2 µM)
Method in brief: (§1)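 Each reported value is a median over duplicate plates. It expresses relative viability: treated-well nuclei count divided by vehicle-well nuclei count. Lung cancer cell lines in 1536-well plates were dosed by pin tool a day after seeding, alone with one drug or with a fixed anchor-drug dose plus five library-drug doses (not always all listed) in √10 steps, and nuclei were counted after 5 days.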

Wnt-C59 + Alpelisib = compound: CC1=NC=CC(=C1)C2=CC=C(C=C2)CC(=O)NC3=CC=C(C=C3)C4=CN=CC=C4 [Wnt-C59] + Cc1nc(NC(=O)N2CCC[C@H]2C(N)=O)sc1-c1ccnc(C(C)(C)C(F)(F)F)c1 [Alpelisib] (partner 2 µM)
Method in brief: as §1

Lapatinib + Phenformin = compound: CS(=O)(=O)CCNCc1ccc(-c2ccc3ncnc(Nc4ccc(OCc5cccc(F)c5)c(Cl)c4)c3c2)o1 [Lapatinib] + N=C(N)NC(=N)NCCc1ccccc1 [Phenformin] (partner 250 µM)
Method in brief: as §1

Lapatinib + Foretinib = compound: CS(=O)(=O)CCNCc1ccc(-c2ccc3ncnc(Nc4ccc(OCc5cccc(F)c5)c(Cl)c4)c3c2)o1 [Lapatinib] + COc1cc2c(Oc3ccc(NC(=O)C4(C(=O)Nc5ccc(F)cc5)CC4)cc3F)ccnc2cc1OCCCN1CCOCC1 [Foretinib] (partner 0.25 µM)
Method in brief: as §1

Row | Cell Line | relative viability (Wnt-C59 + Lapatinib; first compound 0.001 µM) | relative viability (Wnt-C59 + Lapatinib; first compound 0.01 µM) | relative viability (Wnt-C59 + Lapatinib; first compound 0.03162 µM) | relative viability (Wnt-C59 + Lapatinib; first compound 0.1 µM) | relative viability (Wnt-C59 + Alpelisib; first compound 0.001 µM) | relative viability (Wnt-C59 + Alpelisib; first compound 0.01 µM) | relative viability (Wnt-C59 + Alpelisib; first compound 0.03162 µM) | relative viability (Wnt-C59 + Alpelisib; first compound 0.1 µM) | relative viability (Lapatinib + Phenformin; first compound 0.06325 µM) | relative viability (Lapatinib + Phenformin; first compound 0.2 µM) | relative viability (Lapatinib + Phenformin; first compound 0.6325 µM) | relative viability (Lapatinib + Phenformin; first compound 2 µM) | relative viability (Lapatinib + Foretinib; first compound 0.06325 µM) | relative viability (Lapatinib + Foretinib; first compound 0.2 µM) | relative viability (Lapatinib + Foretinib; first compound 0.6325 µM) | relative viability (Lapatinib + Foretinib; first compound 2 µM) | relative viability (Lapatinib + Foretinib; first compound 0.02 µM) | relative viability (Lapatinib + Phenformin; first compound 0.02 µM)
1 | HCC-44 | 1.01 | 1.03 | 1.01 | 1.03 | 0.792 | 0.817 | 0.865 | 0.892 | 0.189 | 0.211 | 0.172 | 0.235 | – | – | – | – | – | –
2 | HCC-78 | 0.632 | 0.721 | 0.901 | 0.741 | 0.298 | 0.336 | 0.333 | 0.363 | 0.631 | 0.588 | 0.856 | 0.654 | 0.427 | 0.446 | 0.429 | 0.401 | – | –
3 | HCC-366 | 1.16 | 0.999 | 1.07 | 0.976 | 0.453 | 0.287 | 0.412 | 0.297 | 0.642 | 0.633 | 0.594 | 0.559 | 0.86 | 0.887 | 0.912 | 0.89 | – | –
4 | HCC-827 | 0.188 | 0.163 | 0.191 | 0.203 | 0.993 | 0.979 | 0.971 | 0.966 | 0.398 | 0.412 | 0.414 | 0.335 | 0.974 | 1.05 | 0.97 | 0.155 | 1.08 | 0.383
5 | HOP-62 | 0.907 | 0.996 | 1.04 | 1.03 | 1.13 | 0.919 | 1.1 | 0.644 | 0.641 | 0.635 | 0.631 | 0.695 | 1.16 | 1.03 | 1.09 | 1.13 | 1.14 | 0.499
6 | IA-LM | 0.876 | 0.768 | 0.47 | 0.674 | 0.84 | 0.862 | 0.759 | 0.804 | – | – | – | – | 1.13 | 1.36 | 1.03 | 1.16 | 1.08 | –
7 | LC-2-ad | 1.03 | 0.902 | 0.975 | 0.927 | 0.824 | 0.846 | 0.953 | 0.778 | 0.438 | 0.551 | 0.478 | 0.519 | 0.655 | 0.872 | 0.769 | 0.567 | – | –
8 | LCLC-97TM1 | 1.64 | 0.603 | 1.07 | 0.687 | 0.268 | 0.256 | 0.19 | 0.2 | – | 0.462 | 0.407 | 0.471 | – | 0.843 | 0.973 | 1.02 | – | –
9 | LCLC-103H | – | – | – | – | 0.951 | 0.969 | 1.04 | 1.16 | 0.271 | 0.316 | 0.363 | 0.382 | 0.744 | 0.753 | 0.835 | 0.712 | 0.849 | 0.276
10 | LK-2 | 0.853 | 0.913 | 0.799 | 0.864 | 1.29 | 1.06 | 1.03 | 0.68 | – | 0.606 | 0.663 | 0.419 | – | 1.39 | 1.42 | 1.07 | – | –
11 | LOU-NH91 | 0.76 | 0.709 | 0.768 | 0.771 | 0.744 | 0.597 | 0.683 | 0.79 | 0.533 | 0.479 | 0.533 | 0.433 | 0.815 | 0.689 | 0.604 | 0.498 | 0.902 | 0.463
12 | NCI-H441 | – | – | – | – | 0.797 | 0.687 | 0.809 | 0.583 | 0.43 | 0.946 | 0.901 | 0.873 | 0.931 | 1.01 | 0.822 | 1.1 | – | –
13 | NCI-H522 | – | – | – | – | – | – | – | – | 0.557 | 0.554 | 0.674 | 0.546 | – | – | – | – | – | –
14 | NCI-H1299 | 0.984 | 0.975 | 0.982 | 0.988 | 1.05 | 1.08 | 1.05 | 1.04 | – | – | – | – | 0.885 | 1.12 | 1.1 | 1.05 | 1.1 | –
15 | NCI-H1623 | – | – | – | – | – | – | – | – | 0.494 | – | 0.659 | 0.261 | 0.637 | 0.634 | 0.785 | 0.277 | 0.702 | 0.546
16 | NCI-H1650 | 0.761 | 0.74 | 0.708 | 0.698 | – | – | – | – | 0.313 | 0.461 | 0.31 | 0.307 | 1.08 | 1.03 | 1.01 | 0.684 | 1 | 0.442
17 | NCI-H1703 | 1.16 | 1.28 | 1.3 | 1.12 | 0.33 | 0.328 | 0.352 | 0.283 | – | – | – | – | 0.347 | 0.296 | 0.299 | 0.388 | 0.305 | –
18 | NCI-H1792 | 0.866 | 0.982 | 0.991 | 0.913 | 0.707 | 0.693 | 0.806 | 0.785 | – | 0.219 | 0.207 | 0.289 | – | – | – | – | – | –
19 | NCI-H2342 | – | – | – | – | – | – | – | – | 0.557 | 0.574 | 0.51 | 0.489 | 1.01 | 0.946 | 0.975 | 0.712 | 1.09 | 0.511
20 | SW 900 | – | – | – | – | – | – | – | – | 0.484 | 0.554 | 0.554 | 0.531 | 0.808 | 0.659 | 0.781 | 0.734 | – | –
